One assay addresses T1, Siglec-8 WT CHO cells (Homo sapiens, UniProt Q9NYZ4).
T1 construct: expressed in transfected cells
As to the kind of experiment: Cell assay (liposome/EV binding, flow cytometry). The format is cell-based. The note with it: Sig-8 WT; 3 mol% ganglioside liposomes; replicates. How it is done:
(§1) Stock lipids (DSPC, Cholesterol, PEG45–DSPE) solutions were prepared by solvating the lipids in chloroform. An appropriate volume of each lipid solution was transferred to a glass test tube to reach the desired mol% of the component. The chloroform was then removed under N2 gas to yield a lipid thin film. Once dry, 100 µL of DMSO was added to the lipid-containing test tube and then the functional lipids (ganglioside, AF647–PEG45–DSPE, Siglec ligand–PEG45–DSPE, pHrodo–PEG45–DSPE, NGL) was added from their respect DMSO stock solution. The lipid mixture was then stored at −80 °C until completely frozen at which point excess DMSO was removed via lyophilization. Dry lipids were then stored at −80 °C until they were extruded. Lipid suppliers can be found in Supplementary Table 4.
(§2) Dry lipids were then hydrated in 1 mL of PBS. The lipids were then sonicated in a bath sonicator in a cycle of 1 min on, 5 min off for a total of five cycles. Liposomes were then extruded using an Avanti mini extruder first using an 800 nm filter and then a 100 nm filter yielding liposomes that were 130 ± 35 nm (Supplementary Table 5) measured using a Malvern Panalytical Zetasizer Nano S. Liposomes were stored at 4 °C.
(§3) 200,000 cells/well were plated into a 96-well U-bottom microplate and centrifuged at 300 × g for 5 min. The cells were then resuspended in 50 µL of 50 µM liposome/50 µg/mL (protein concentration) of EV solution in DMEM F12 5% FBS and incubated at 37 °C for 30 min. Excess liposomes were then removed via centrifuged at 300 × g for 5 min followed by washing the cells with FACS solution. The cells were then resuspended in (1:250 V/V) anti-Siglec-flow buffer (1% V/V FBS, 500 µM, EDTA Hank’s Balanced Salt Solution pH 7.4), solution and left to rest on ice for 30 min. The cells were then centrifuged again at 300 × g for 5 min and the cells were resuspended in FACS buffer solution and were then ready for analysis by flow cytometry. Information regarding antibody clone, catalog number supplier, label isotype, and dilution can be found in Supplementary Table 6. The Siglec-positive cells were gated on for liposome-binding analysis (Supplementary Fig. 1b).
(§4) Flow cytometry measurements were collected on a 5-laser Fortessa X-20 (BD Bioscience). All the resulting data were analyzed using FlowJo (10.5.3) software (BD Biosciences).
A general note: Flow cytometry measures light scatter and fluorescence of single cells or particles in a stream.

A further assay addresses T2, Siglec-8 R125A CHO cells (Homo sapiens, UniProt Q9NYZ4, R125A).
T2 construct: expressed in transfected cells
As to the kind of experiment: Cell assay (liposome/EV binding, flow cytometry). The note with it: Sig-8 R125A; 3 mol% ganglioside liposomes; replicates. The format is cell-based. The procedure:
as §1, §2, §3, §4

The next assay concerns the target T3, WT Siglec-1 CHO cells (Homo sapiens, UniProt Q9BZZ2).
T3 construct: expressed in transfected cells
As to the kind of experiment: Cell assay (liposome/EV binding, flow cytometry). The format is cell-based. The note with it: for Binding of liposomes with increasing ganglioside content against Siglec-1 CHO cells (Fig. 1c) / log10(MFI AF647) of GLL relative to log10(MFI AF647) of the same GLL against UT CHO cells (Fig. 2a): replicates; for log10(MFI AF647) of GLL relative to log10(MFI AF647) of the same GLL against UT CHO cells (Fig. 2a): Sig-1 WT, 3 mol% ganglioside liposomes. Set-up: GM1 liposome binding to Siglec-1 CHO cells, flow cytometry (Fig. 1b) / Binding of liposomes with increasing ganglioside content against Siglec-1 CHO cells (Fig. 1c) / Liposome binding to Siglec-1-expressing CHO cells in the cell assay (Fig. 1f): unit not given here. How it is done:
as §1, §2, §3, §4

Another assay deals with T4, Siglec-7-Fc WT (Homo sapiens, UniProt Q9Y286).
T4 construct: the Siglecs as Fc chimeras; made in house; host or cells: WT CHO cells
As to the kind of experiment: Ganglioside ELISA. In kind it is binding. The note with it: Figure 2c, replicates. The procedure: (§5) Siglec-Fc constructs designed by Rodrigues et al.[30] were used in this work. Siglec-Fc constructs were expressed using WT CHO cells in cell culture media as described above with 1% HEPES. Cells incubated as described above for one-week post confluency. The supernatant was harvested and stored at 4 °C.
(§6) The purification was heavily inspired by Rodrigues et al.[30]. The purification of the Siglec-Fcs from supernatant began with Ni^2+ affinity chromatography using an AKTA FPLC equipped with a HisTrap Excel column (GE). The column was equilibrated with fifteen column volumes (CVs) of equilibrium buffer (500 mM NaCl, 20 mM NaPO4H2, pH 7.4). The Siglec-Fc containing supernatant was then loaded in its entirety onto the column. The column was then washed with fifteen CVs of wash buffer (500 mM NaCl, 30 mM imidazole, 20 mM NaPO4H2, pH 7.4). The Siglec-Fc was then eluted in 20 in 1 mL fractions with twenty CVs of elution buffer (500 mM NaCl, 500 mM imidazole, 20 mM NaPO4H2, pH 7.4). Fractions containing Siglec-Fc were compiled and then prepared for the next stage of purification by diluting the fractions 1:4 with buffer W (100 mM Tris–HCl, 150 mM NaCl, 1 mM EDTA, pH 8.0). A Strep-Tactin column (IBA life sciences) was washed with fifteen CVs of buffer W. The Siglec-Fc-buffer W solution was then loaded in its entirety onto the column. The bound Siglec-Fc was then washed with fifteen CVs of buffer W. Siglec-Fc was eluted from the column with 15 column volumes of buffer E (100 mM Tris–HCl, 150 mM NaCl, 1 mM EDTA, 10 mM d-Desthiobiotin, pH 8.0). Fractions containing Siglec-Fc were pooled and dialyzed against PBS to remove any d-Desthiobiotin. After dialysis, Siglec-Fcs were concentrated using an ultra-centrifugal device (30 kDa MWCO) and aliquoted into 5 µg aliquots, and frozen. The Siglec-Fcs were then lyophilized overnight, and the lyophilized Siglec-Fcs were stored at −20 °C.
(§7) Our ELISA approach was carried out similarly to previous work by Rapoport[12] and Yamakawa[44]. Ganglioside ethanol solutions (10 µM) were prepared and then transferred in 50 µL increments to a 96-well microplate. The ethanol was removed by drying the plates overnight at room temperature. The plates were then washed with PBS, dried, and then blocked with 5% (m/V) BSA PBS for 1 h. The plates were then washed with PBS and then 2 µg/mL Siglec-Fc precomplexed to Strep-Tactin (2 Siglec-Fc:1 Strep-Tactin monomer) horse radish peroxidase was added to the microplate. The complex was incubated with the plate at room temperature for 2 h. The unbound complexes were then removed by washing in PBS and the plate was developed with Sera care TMB solution. The amount of binding was then quantified by using the background (microplate well with no ligand) subtracted absorbance at 450 nm using a Molecular Devices SpectraMAX ® iD5.
For orientation: ELISA stands for enzyme-linked immunosorbent assay.

For another assay, the target named is Siglec-1-Fc WT (Homo sapiens, UniProt Q9BZZ2). As to the kind of experiment: Ganglioside ELISA. In kind it is binding. The note with it: Figure 2c, replicates. The procedure:
as §5, §6, §7

A further assay concerns the target T5, Siglec-7-Fc R124A (Homo sapiens, UniProt Q9Y286, R124A).
T5 construct: the Siglecs as Fc chimeras; made in house; host or cells: WT CHO cells
In words: Ganglioside ELISA. The format is binding. The note with it: Figure 2c, replicates. The procedure:
as §5, §6, §7

The target in a further assay is T6, Siglec-6-Fc WT (Homo sapiens, UniProt O43699).
T6 construct: the Siglecs as Fc chimeras; made in house; host or cells: WT CHO cells
As to the kind of experiment: Ganglioside ELISA. The note with it: for ganglioside ELISA signal, Siglec-6 WT: Figure 2c, replicates; for ELISA recognition of adsorbed ganglioside by Siglec-6 (in words): ganglioside adsorbed to microplate, outside a bilayer. In kind it is binding. How it is done: as §5, §6, §7

In the next assay the target is T7, R122A Siglec-6-Fc (Homo sapiens, UniProt O43699, R122A).
T7 construct: the Siglecs as Fc chimeras; made in house; host or cells: WT CHO cells
As to the kind of experiment: Ganglioside ELISA. The format is binding. The note with it: Figure 2c, replicates. The procedure: as §5, §6, §7

“And” between values parts separate entries of the source, which are not always exact repeats. Equal values may be shown once.

T3 sequence (Q9BZZ2 20-1709): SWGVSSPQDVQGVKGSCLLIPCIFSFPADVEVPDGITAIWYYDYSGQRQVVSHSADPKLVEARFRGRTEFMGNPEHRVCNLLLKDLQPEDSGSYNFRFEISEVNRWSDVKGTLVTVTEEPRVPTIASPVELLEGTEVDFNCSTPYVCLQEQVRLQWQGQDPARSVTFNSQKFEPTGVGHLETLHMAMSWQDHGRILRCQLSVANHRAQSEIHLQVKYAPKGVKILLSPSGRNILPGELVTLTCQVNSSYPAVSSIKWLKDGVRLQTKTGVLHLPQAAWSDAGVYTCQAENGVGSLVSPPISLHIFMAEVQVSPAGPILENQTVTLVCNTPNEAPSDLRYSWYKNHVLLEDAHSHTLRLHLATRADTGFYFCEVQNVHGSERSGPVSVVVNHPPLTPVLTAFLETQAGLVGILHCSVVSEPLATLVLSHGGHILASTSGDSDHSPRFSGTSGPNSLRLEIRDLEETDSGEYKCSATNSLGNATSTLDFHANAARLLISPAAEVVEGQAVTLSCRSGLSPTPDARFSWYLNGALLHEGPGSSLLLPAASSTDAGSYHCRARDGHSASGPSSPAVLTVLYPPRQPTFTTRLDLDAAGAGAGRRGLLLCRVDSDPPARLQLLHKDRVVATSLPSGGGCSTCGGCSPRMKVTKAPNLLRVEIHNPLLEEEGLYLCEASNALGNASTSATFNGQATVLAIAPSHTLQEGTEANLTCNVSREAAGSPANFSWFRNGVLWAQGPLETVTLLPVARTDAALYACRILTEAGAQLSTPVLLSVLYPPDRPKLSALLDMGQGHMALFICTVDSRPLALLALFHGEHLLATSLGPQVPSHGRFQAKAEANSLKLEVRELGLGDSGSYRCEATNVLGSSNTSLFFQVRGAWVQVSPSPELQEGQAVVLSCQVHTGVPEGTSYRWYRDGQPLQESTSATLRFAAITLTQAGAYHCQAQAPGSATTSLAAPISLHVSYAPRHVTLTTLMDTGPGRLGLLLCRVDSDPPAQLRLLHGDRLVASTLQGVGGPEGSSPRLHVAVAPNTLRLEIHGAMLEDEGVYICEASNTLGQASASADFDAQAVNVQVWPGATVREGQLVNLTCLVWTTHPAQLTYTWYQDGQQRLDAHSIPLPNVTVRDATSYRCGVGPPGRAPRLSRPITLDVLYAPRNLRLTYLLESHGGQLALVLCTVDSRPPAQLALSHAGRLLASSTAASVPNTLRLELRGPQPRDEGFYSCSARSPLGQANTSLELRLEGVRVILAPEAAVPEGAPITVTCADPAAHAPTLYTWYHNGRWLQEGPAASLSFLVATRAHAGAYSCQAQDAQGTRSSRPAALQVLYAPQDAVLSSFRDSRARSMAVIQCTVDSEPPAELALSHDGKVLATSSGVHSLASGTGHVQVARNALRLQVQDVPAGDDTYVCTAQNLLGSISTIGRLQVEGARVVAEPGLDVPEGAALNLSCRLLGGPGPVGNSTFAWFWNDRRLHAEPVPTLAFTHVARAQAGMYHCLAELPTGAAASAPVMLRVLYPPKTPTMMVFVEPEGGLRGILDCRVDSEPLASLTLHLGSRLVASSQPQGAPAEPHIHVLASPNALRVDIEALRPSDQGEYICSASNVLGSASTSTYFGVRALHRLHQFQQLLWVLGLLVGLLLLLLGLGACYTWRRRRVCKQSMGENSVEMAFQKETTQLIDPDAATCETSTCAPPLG
T1 sequence (Q9NYZ4 17-499): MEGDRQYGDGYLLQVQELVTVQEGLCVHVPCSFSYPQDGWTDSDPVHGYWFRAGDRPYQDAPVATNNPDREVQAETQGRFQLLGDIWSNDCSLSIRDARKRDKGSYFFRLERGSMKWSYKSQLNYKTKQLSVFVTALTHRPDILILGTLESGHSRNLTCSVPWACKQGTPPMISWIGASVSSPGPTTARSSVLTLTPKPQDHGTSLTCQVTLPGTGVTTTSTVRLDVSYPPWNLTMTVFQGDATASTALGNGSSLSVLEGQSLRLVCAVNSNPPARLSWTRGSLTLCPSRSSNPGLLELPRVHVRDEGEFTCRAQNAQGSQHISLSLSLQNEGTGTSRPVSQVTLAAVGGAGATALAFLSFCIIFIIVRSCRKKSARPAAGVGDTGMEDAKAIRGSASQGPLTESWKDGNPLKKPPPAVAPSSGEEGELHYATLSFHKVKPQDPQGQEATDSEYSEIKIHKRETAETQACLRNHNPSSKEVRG
T7 sequence (O43699 27-347 R122A limits assumed): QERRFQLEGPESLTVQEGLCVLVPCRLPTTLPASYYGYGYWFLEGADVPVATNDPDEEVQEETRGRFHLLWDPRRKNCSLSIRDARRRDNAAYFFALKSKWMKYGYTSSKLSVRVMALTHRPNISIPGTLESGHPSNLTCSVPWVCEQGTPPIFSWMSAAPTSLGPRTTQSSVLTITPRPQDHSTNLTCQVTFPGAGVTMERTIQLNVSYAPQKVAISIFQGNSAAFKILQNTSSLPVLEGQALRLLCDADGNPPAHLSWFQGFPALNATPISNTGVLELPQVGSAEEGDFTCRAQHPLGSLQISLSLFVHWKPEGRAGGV
Sequence of Siglec-1-Fc WT (Q9BZZ2 20-136 limits assumed): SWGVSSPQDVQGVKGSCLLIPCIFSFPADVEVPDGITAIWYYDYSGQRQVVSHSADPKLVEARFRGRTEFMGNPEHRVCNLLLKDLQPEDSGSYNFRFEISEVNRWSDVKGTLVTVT
T5 sequence (Q9Y286 19-353 R124A limits assumed): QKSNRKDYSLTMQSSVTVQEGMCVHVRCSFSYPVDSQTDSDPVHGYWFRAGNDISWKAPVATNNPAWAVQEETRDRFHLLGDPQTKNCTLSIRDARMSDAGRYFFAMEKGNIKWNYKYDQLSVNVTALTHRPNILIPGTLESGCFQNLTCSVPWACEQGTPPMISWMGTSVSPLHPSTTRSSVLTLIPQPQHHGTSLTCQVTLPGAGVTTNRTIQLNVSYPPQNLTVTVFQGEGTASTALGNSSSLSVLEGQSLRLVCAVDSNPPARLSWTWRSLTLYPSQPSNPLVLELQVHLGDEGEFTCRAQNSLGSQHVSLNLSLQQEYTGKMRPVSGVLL
T2 sequence (Q9NYZ4 17-499 R125A): as the sequence (Q9NYZ4 17-499) above, with R109A counted along it
T4 sequence (Q9Y286 19-353 limits assumed): as the sequence (Q9Y286 19-353 R124A limits assumed) above, with A106R counted along it
T6 sequence (O43699 27-347 limits assumed): as the sequence (O43699 27-347 R122A limits assumed) above, with A96R counted along it

With GM2, the “log10(MFI AF647) of GLL relative to log10(MFI AF647) of the same GLL against UT CHO cells (Fig. 2a)” value at Siglec-8 WT CHO cells is -0.18 (2×) and -0.15 and -0.17; on Siglec-8 R125A CHO cells it was -0.12 and -0.14 and -0.17 (2×); at WT Siglec-1 CHO cells it was 1.23 and 1.19 and 1.21 and 1.2. Moreover, the “Binding of liposomes with increasing ganglioside content against Siglec-1 CHO cells (Fig. 1c)” value on WT Siglec-1 CHO cells (0.00187 Ligand/nm2) was -0.01; at WT Siglec-1 CHO cells (0.00933 Ligand/nm2) it was 0.11 (2×) and 0.13 and 0.16; on WT Siglec-1 CHO cells (0.0187 Ligand/nm2), 1.01 and 0.97 and 1 and 1.02; on WT Siglec-1 CHO cells (0.056 Ligand/nm2) it was 0.8 and 0.79 and 0.78 (2×); on WT Siglec-1 CHO cells (0.0933 Ligand/nm2), 0.59 and 0.57 and 0.55 (2×); at WT Siglec-1 CHO cells (0.373 Ligand/nm2), 0.24 and 0.22 (3×). The “ganglioside content threshold above which GLL binding to Siglec-1 CHO cells decreased” value on WT Siglec-1 CHO cells (ganglioside titrated in GLLs) was 1–3 mol%. On Siglec-7-Fc WT, the “ganglioside ELISA signal, Siglec-7 WT” value was 0.12 and 0.09 and 0.1 and 0.06. Moreover, the “ganglioside ELISA signal, Siglec-1 WT” value at Siglec-1-Fc WT was 0.89 and 1.09 and 1.03 and 1.06. In addition, the “ganglioside ELISA signal, Siglec-7 R” value on Siglec-7-Fc R124A is -0.01 and 0 and -0.02. Moreover, the “ganglioside ELISA signal, Siglec-6 WT” value on Siglec-6-Fc WT is 0 and 0.04 and 0.02 and 0.03. Further, the “ganglioside ELISA signal, Siglec-6 R” value on R122A Siglec-6-Fc was 0.04 and 0.05 and 0.06 and 0.07.

As for GM4, the “log10(MFI AF647) of GLL relative to log10(MFI AF647) of the same GLL against UT CHO cells (Fig. 2a)” value at Siglec-8 WT CHO cells is -0.15 (2×) and -0.14 and -0.13; at Siglec-8 R125A CHO cells it was -0.14 (3×) and -0.16; at WT Siglec-1 CHO cells, 0.04 and 0.02 (2×) and -0.02. Besides, the “ganglioside ELISA signal, Siglec-7 WT” value at Siglec-7-Fc WT is 0.52 and 0.45 and 0.53 and 0.58. For the same substance, on Siglec-1-Fc WT, the “ganglioside ELISA signal, Siglec-1 WT” value was 0.62 and 0.66 and 0.72 and 0.59. Moreover, the “ganglioside ELISA signal, Siglec-7 R” value at Siglec-7-Fc R124A is -0.01 and 0 and -0.02. For the same substance, on Siglec-6-Fc WT, the “ganglioside ELISA signal, Siglec-6 WT” value is 0.22 and 0.25 and 0.27 and 0.23. Further, at Siglec-6-Fc WT, the “ELISA recognition of adsorbed ganglioside by Siglec-6 (in words)” value is “interacted weakly”. In addition, the “ganglioside ELISA signal, Siglec-6 R” value at R122A Siglec-6-Fc is 0.26 and 0.23 and 0.24 and 0.28.

With GQ1b, the “log10(MFI AF647) of GLL relative to log10(MFI AF647) of the same GLL against UT CHO cells (Fig. 2a)” value is -0.02 (2×) and -0.04 and 0.24 at Siglec-8 WT CHO cells; 0.01 and -0.02 and -0.04 and -0.05 at Siglec-8 R125A CHO cells; 0.04 and 0.07 and 0.05 and 0.03 on WT Siglec-1 CHO cells. Moreover, the “ganglioside ELISA signal, Siglec-7 WT” value at Siglec-7-Fc WT is 0.66 and 0.63 and 0.69. The “ganglioside ELISA signal, Siglec-1 WT” value on Siglec-1-Fc WT is 0.15 and 0.21 and 0.24 and 0.23. Moreover, the “ganglioside ELISA signal, Siglec-7 R” value on Siglec-7-Fc R124A is -0.01 and 0. At Siglec-6-Fc WT, the “ganglioside ELISA signal, Siglec-6 WT” value is -0.1 and -0.02 and -0.09 and -0.12. The “ELISA recognition of adsorbed ganglioside by Siglec-6 (in words)” value on Siglec-6-Fc WT is “did not recognize”. Further, the “ganglioside ELISA signal, Siglec-6 R” value on R122A Siglec-6-Fc was 0.11 and 0.1 and 0.13 and 0.12.

The record behind these values is PMC10122656, “Siglec-6 mediates the uptake of extracellular vesicles through a noncanonical glycolipid binding pocket” (Nature Communications, 2023).
